Here are results for 26 compounds from patent US20110166135A1, “AROMATIC NITROGEN-CONTAINING 6-MEMBERED RING COMPOUNDS AND THEIR USE” (priority 2008, published 2011).

In one series the target is T1, PDE10 (PDE10A) (Bos taurus, UniProt A0A3Q1MHJ4).
T1 construct: isolated and prepared from bovine corpus striatum; from tissue; host or cells: bovine corpus striatum
T1 sequence (A0A3Q1MHJ4 1-1068): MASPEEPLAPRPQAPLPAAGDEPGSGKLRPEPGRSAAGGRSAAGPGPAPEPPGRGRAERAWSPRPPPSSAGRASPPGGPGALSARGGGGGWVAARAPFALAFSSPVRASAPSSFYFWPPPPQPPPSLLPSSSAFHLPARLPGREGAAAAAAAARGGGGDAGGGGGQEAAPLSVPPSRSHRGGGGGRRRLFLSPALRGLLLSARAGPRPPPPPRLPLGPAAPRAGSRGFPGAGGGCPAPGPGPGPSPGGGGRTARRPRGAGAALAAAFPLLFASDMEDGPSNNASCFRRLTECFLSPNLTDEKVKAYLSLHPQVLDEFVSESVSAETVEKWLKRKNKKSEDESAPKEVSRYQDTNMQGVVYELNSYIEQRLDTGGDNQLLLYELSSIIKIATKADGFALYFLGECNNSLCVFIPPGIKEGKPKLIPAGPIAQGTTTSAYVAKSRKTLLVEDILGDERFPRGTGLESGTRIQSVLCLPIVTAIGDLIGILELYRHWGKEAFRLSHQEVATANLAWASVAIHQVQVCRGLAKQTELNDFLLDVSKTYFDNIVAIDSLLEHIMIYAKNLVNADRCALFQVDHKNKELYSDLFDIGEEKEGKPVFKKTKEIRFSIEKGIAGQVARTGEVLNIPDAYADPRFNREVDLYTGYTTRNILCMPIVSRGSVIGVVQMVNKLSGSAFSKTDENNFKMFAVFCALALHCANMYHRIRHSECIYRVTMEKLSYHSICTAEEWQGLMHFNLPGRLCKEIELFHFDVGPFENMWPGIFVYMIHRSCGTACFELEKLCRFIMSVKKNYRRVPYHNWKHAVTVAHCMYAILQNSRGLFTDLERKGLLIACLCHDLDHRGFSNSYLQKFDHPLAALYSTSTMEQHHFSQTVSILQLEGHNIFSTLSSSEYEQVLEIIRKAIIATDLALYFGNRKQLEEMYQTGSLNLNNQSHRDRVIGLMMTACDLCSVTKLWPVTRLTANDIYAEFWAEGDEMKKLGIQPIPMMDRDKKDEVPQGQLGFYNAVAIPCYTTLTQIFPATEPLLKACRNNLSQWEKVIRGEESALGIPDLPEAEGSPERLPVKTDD
Description: Measurement of PDE10 inhibitory activity (radiolabeled nucleotide PDE assay, Method-A or Method-B). The note with it: Method-A: [3H]-cAMP substrate, 37° C., 30 minutes, enzyme from bovine corpus striatum. It is filed as biochemical. Here is the method:
(1) The enzyme PDE10 (PDE10A) was isolated and prepared from bovine corpus striatum, according to the methods described in references Fujishige et al., Eur. J. Biochem., vol. 266, pp. 1118-1127, 1999. The enzyme solution obtained was used for a PDE assay.
The PDE assay was performed according to the method described in Kotera et al. (Kotera et al., Biochem. Pharmacol., vol. 60, pp. 1333-1341, 2000), by the radiolabeled nucleotide method.
Specifically, the measurements of the inhibitory activities were carried out in one of the following methods.
(Method-A) The enzymatic reaction was carried out in 500 μl of assay buffer [50 mM Tris-HCl, pH8.0, 5 mM MgCl2, 4 mM 2-mercaptoethanol, 0.33 mg/ml bovine serum albumin] containing as a substrate about 4.8 nM [^3H]-cAMP+0.25 μM unlabeled cAMP (available from Amersham Biosciences) or about 9.6 nM [^3H]-cAMP.
The reaction was carried out for 30 minutes while keeping the temperature at 37° C. It was stopped by boiling the reaction mixture for 1.5 minutes, and further added thereto was 100 μl of snake venom (Crotalus atrox snake venom 1 mg/ml) and the temperature was kept at 37° C. for 30 minutes. Then 500 μl of methanol was added, and the reaction mixture was applied to a Dowex column (1×8 200-400). Subsequently, scintillation cocktail was added to each aliquot of the eluant, and the radioactivity was measured in a scintillation counter. Thus, PDE activity taking cAMP as a substrate (an activity to hydrolyze cAMP) was measured.
In the measurements of the inhibitory activities of compounds, a test compound was added to the above-mentioned reaction mixture, in various concentrations, and PDE activity was measured in the presence or absence of the test compound. From the measurements, its PDE10 (PDE10A) inhibitory activity was determined.
(Method-B) The test compounds were dissolved in dimethyl sulfoxide (DMSO). 2 μL of the compound solution was added to 96 well plate, and the reaction mixture (20 μL of PDE enzyme solution in 50 mM Tris-HCl, pH 8.0, 40 μL of the assay buffer (50 mM Tris-HCl, pH 8.0, 2 mM MgCl2, 0.07% 2-mercaptoethanol, and 0.825 mg/mL bovine serum albumin), and 20 μL of 1 mg/mL snake venom) was added to the 96 well plate. The enzyme reaction was started by adding and mixing with substrate solution of 20 μL containing approximate 35 nM [5′,8-3H]cAMP in 50 mM Tris-HCl, pH 8.0. The final concentration of cAMP in the reaction mixtures was 7 nM. The reaction mixtures were incubated at room temperature for 90 min under dark conditions. After incubation, the reaction was stopped by adding 100 μL of methanol and resultant solutions were applied to filter plate containing Dowex (1×8 200-400) and centrifuged. 50 μL of the eluate together with wash eluate with additional 100 μL methanol was collected in another plate and the radioactivity was measured with 250 μL of scintillant.
(2) The compounds in the Examples below were tested for PDE inhibition using (Method-A) or (Method-B) described above.
In turn, `COc1ccc(-c2cc(N3CCn4ccnc4C3)nc(/C=C/c3nc(N(C)C)c4ccccc4n3)n2)cc1OC` [Example 1.008] had an IC50 of 0.44 nM. This counts as sub-nanomolar. Compound `COc1ccc(-c2cc(N3CCN(C)CC3)nc(/C=C/c3nc(-n4ccnc4)c4ccccc4n3)n2)cc1OC` [Example 1.010] returned an IC50 of 46 nM. The compound `COc1ccc(-c2cc(N3CCN(C)C3=O)nc(/C=C/c3nc(N4CCCC4)c4ccccc4n3)n2)cc1OC` [Example 1.013] came in with an IC50 of 4.2 nM. Same read-out and setting: the same measure for `COc1ccc(-c2cc(N3CCCC3)nc(/C=C/c3nc(C)nc4c3CCN4C)n2)cc1OC` [Example 1.055]: 9.7 nM; for `COc1ccc(-c2cc(N3CCCC3)nc(/C=C/c3nc(C)cnc3C)n2)cc1OC` [Example 1.057]: 29 nM; for `Cc1cnc(/C=C/c2nc(-c3ccccn3)cc(N3CCCC3)n2)nc1N(C)C` [Example 1.071]: 31 nM. On the same count and under the same terms, the value for `Cc1nc(OCc2cc(-c3ccco3)nc(N3CCCC3)n2)nc(N(C)C)c1C` [Example 3.017] was 35 nM; that for `COc1cc(OC)nc(OCc2cc(-c3ccc(OC)c(OC)c3)nc(N3CCCC3)n2)n1` [Example 3.029] was 38 nM; that for `CN(C)c1nc(OCc2cc(N3CCCC3)nc(-c3cccnc3)n2)nc2ccccc12` [Example 3.034] was 24 nM.

Still in this series, the particulars now being: Method-B: 96 well plate, 7 nM cAMP, room temperature, 90 min, enzyme from bovine corpus striatum.
Compound `CN(C)c1nc(/C=C/c2nc(C(=O)NN3CCCCC3)cc(N3CCCC3)n2)nc2ccccc12` [Example 1.159] returned an IC50 of 0.6 nM. This counts as sub-nanomolar. On the same count and under the same terms, the same measure for `Cc1nc2ccccc2nc1/C=C/c1nc(C(=O)NC2CCOCC2)cc(N2CCCC2)n1` [Example 1.208]: 0.62 nM; for `Cc1nc2ccccc2nc1/C=C/c1nc(C(=O)N(C2CCOCC2)C2CC2)cc(N2CCCC2)n1` [Example 1.211]: 0.76 nM; for `Cc1nc2ccccc2nc1/C=C/c1nc(C(=O)NN2CCCCC2)cc(N2CCCC2)n1` [Example 1.220]: 0.49 nM. On to `Cc1nc2ccccc2nc1/C=C/c1nc(C(=O)N(C)C2CCOCC2)cc(N2CCC(O)C2)n1` (stereo not shown) [Example 1.226], for which the IC50 was determined as 20 nM. As for `CN(C(=O)c1cc(N2CCCC2)nc(/C=C/c2nc3ccccc3nc2C2CC2)n1)C1CCOCC1` [Example 1.253], the IC50 was 1.4 nM. This IC50 lies about 14-fold lower than the previous one. `Cc1cc2ccccc2nc1/C=C/c1nc(C(=O)NC2CCOCC2)cc(N2CCCC2)n1` [Example 1.260] had an IC50 of 2.5 nM. Against the preceding compound, the IC50 is about 1.8-fold higher.

`Cc1nc2ccccc2nc1/C=C/c1nc(CNC2CCOCC2)cc(N2CCCC2)n1` [Example 1.268] registered an IC50 of 0.7 nM. The compound `CN(C)c1nc(/C=C/c2nc(OC3CCCCC3)cc(N3CCCC3)n2)nc2ccccc12` [Example 2.035] yielded an IC50 of 0.89 nM. `CC(C)=NOc1cc(N2CCCC2)nc(/C=C/c2nc(N(C)C)c3ccccc3n2)n1` [Example 2.039] returned an IC50 of 0.84 nM. As to `CN(C)c1nc(/C=C/c2nc(OC[C@@H]3CCC(=O)N3)cc(N3CCCC3)n2)nc2ccccc12` [Example 2.048], half-maximal inhibition (IC50) required 0.21 nM.

Compound `Cc1nc(/C=C/c2nc(OC3CCOCC3)cc(N3CCCC3)n2)nc(N(C)C)c1C` [Example 2.053] showed an IC50 of 0.64 nM. Same read-out and setting: the same measure for `Cc1nc2ccccc2nc1/C=C/c1cc(C(=O)NC2CCOCC2)nc(N2CCCC2)n1` [Example 4.001]: 0.86 nM. In the case of `Cc1nc2ccccc2nc1CCc1nc(C(=O)NC[C@@H]2CCCO2)cc(N2CCCC2)n1` [Example 5.006], 3.3 nM corresponded to half-maximal inhibition (IC50). Against the preceding compound, the IC50 is about 3.8-fold higher. For the compound `CCOc1nc2ccccc2nc1CCc1nc(C(=O)NC2CCOCC2)cc(N2CCCC2)n1` [Example 5.012], the IC50 is 2.3 nM.

System in another series: not given
Experiment: not given
Details: not given
For `COc1ccc(-c2cc(N3CCC(O)C3)nc(/C=C/c3nc(N(C)C)c4ccccc4n3)n2)cc1OC` (stereo not shown) [Example 1.007, 1-(6-(3,4-dimethoxyphenyl)-2-{(E)-2-[4-(dimethylamino)quinazolin-2-yl]vinyl}pyrimidin-4-yl)pyrrolidin-3-ol], the melting point was in the range of 199 to 201 °C. Same read-out and setting: the same measure for `COc1ccc(-c2cc(N3CCn4ccnc4C3)nc(/C=C/c3nc(N(C)C)c4ccccc4n3)n2)cc1OC` [Example 1.008]: 103 to 108 °C; for `COc1ccc(-c2cc(N3CCN(C)CC3)nc(/C=C/c3nc(-n4ccnc4)c4ccccc4n3)n2)cc1OC` [Example 1.010]: 177 to 180 °C. Turning to `COc1ccc(-c2cc(N3CCC(NC(=O)CN(C)C)C3)nc(/C=C/c3nc(N(C)C)c4ccccc4n3)n2)cc1OC` (stereo not shown) [Example 1.104, N^1-[1-(6-(3,4-dimethoxyphenyl)-2-{(E)-2-[4-(dimethylamino)quinazolin-2-yl]vinyl}pyrimidin-4-yl)pyrrolidin-3-yl]-N^2,N^2-dimethylglycine amide], the melting point was in the range of 126 to 131 °C.

Usually IC50 stands for the point on the concentration scale where inhibition reaches its midpoint. A low value points to higher potency. As a reminder, the melting point is the temperature, or range, at which the solid turns liquid.
